According to patent publication US11725027B2, “Hypersensitive response elicitor-derived peptides and use thereof” (priority 2016, dated 2023):
No end group written: not given here.

Conditions: 50 mM buffer solutions pH 5.6-8.0, 0.25% Proxel GXL
Method: Stability against chemical degradation was assessed in various pH buffers by creating 0.2% AI solutions of pure, chemically synthesized peptide in deionized water, 0.25% weight to volume of Proxel® GXL (biocide), and 50 millimolar (mM) of nine buffers (separately) as follows: Citrate, pH 5.6, MES pH 6.0, MOPS pH 6.5, Citrate pH 7.2, EDDS pH 7.3, imidazole pH 7.5, EDTA pH 8, Phosphate pH 8, and TES pH 8.

With QLELLLAFIAAALQQ [Peptide P5-5] the solubility was “Precipitation”.
